“Also recorded” adds a separate entry of the source. Where two headings read alike, the source gives them in different places.

The source of these data is paper PMC6579712 (Xenobiotica; the fate of foreign compounds in biological …, 2018).

For series [1] the following is noted: in vivo.
For series [2], the system named is RT-SHIV. In words: 90% inhibitory quotient. The arrangement: IQ90 in NHP brain tissue, one individual animal: unit not given beside the values. Particulars: for IQ90 in NHP brain tissue, one individual animal: the single animal above 1.
Series [3] is described as follows: ARV concentrations in brain tissue and plasma by LC-MS/MS, hu-HSC-RAG mice. Particulars: p=0.29.
Another series is described as follows: in vitro. The format is in vitro ADME, rhesus macaques. The settings on record: rhesus macaque, frontal cortex brain tissue homogenate.
Series [4] deals with RT-SHIV. In words: IC90 against the RT-SHIV strain of virus. The format is cell-based.
The conditions of series [5]: no reference given; cited from earlier work.
The conditions of series [6]: in vivo; cited from earlier work.
The test system of a further series is HIV. Particulars: target value used for colocalization; cited from earlier work.
The conditions of series [7]: in vivo; cited from earlier work. This is another data set of the same source.
The conditions of series [8]: cited from earlier work.
The nature of series [9]: ARV concentrations in brain tissue, CSF and plasma by LC-MS/MS, NHPs.
Series [10] can be described thus: ARV concentrations in brain tissue and plasma by LC-MS/MS, BLT mice. The settings on record: BLT vs hu-HSC-RAG.

As for `CC(Cn1cnc2c(N)ncnc21)OCP(=O)(O)OP(=O)(O)OP(=O)(O)O` (stereo in doubt) [TFV-dp, tenofovir diphosphate], the “TFV-dp concentration range in all brain tissue samples” value in series [1] is 851 to 179,000 fmol/g of tissue. The “IQ90 in NHP brain tissue, one individual animal” value in the series with RT-SHIV [2] is 1.1. Further, the “fold higher median TFV-dp brain concentration in hu-HSC-RAG vs BLT mice” value in [3] was 10 fold.

For the molecule `COC(=O)N[C@H](C(=O)N[C@@H](Cc1ccccc1)[C@@H](O)CN(Cc1ccc(-c2ccccn2)cc1)NC(=O)[C@@H](NC(=O)OC)C(C)(C)C)C(C)(C)C` [ATZ, atazanavir], the fraction unbound – broadly, free concentration divided by total concentration – at 18 h in the series “in vitro” was 0.76. The “fold higher IC90 against RT-SHIV than against clinical HIV-1 isolates” value in the series on RT-SHIV [4] was 1,000 fold. For the same molecule, in series [5], the BCS class entry is on record as “class I or class II”. Moreover, in series [6], the CSF concentrations was 5 to 21 ng/mL.

For the molecule `O=C1Nc2ccc(Cl)cc2[C@@](C#CC2CC2)(C(F)(F)F)O1` [EFV, efavirenz], in the series on HIV, the IC50 target was 2 ng/g. For the same molecule, the BCS class entry in series [5] is listed as “class I or class II”. In [7], the “median brain tissue concentration, human post-mortem” value is 900 ng/g. Also, the “blood plasma protein binding” value in series [8] (ref Boffito et al. 2003) is 99.5%. For the same molecule, the “total brain tissue concentration, median [range]” value in series [9] (NHP, LC-MS/MS, four brain regions combined) came to 775 ng/g.

On to `Nc1nc(=O)n([C@@H]2CS[C@H](CO)O2)cc1F` [FTC, emtricitabine], for which the “protein binding in plasma” value in series [8] (plasma) is less than 10%. Also, in [10], the “fold higher brain tissue penetration in BLT mice compared to hu-HSC-RAG mice” value is given as 5 fold. Besides, the “fold lower CSF concentration in NHPs than human concentrations” value in series [9] (compared with ref Calcagno (2014)) is “approximately 3 fold”.

With `Nc1nc(=O)n([C@@H]2CS[C@H](COP(=O)(O)OP(=O)(O)OP(=O)(O)O)O2)cc1F` [FTC-tp, emtricitabine triphosphate], for the setting “all three animal models”, the “FTC-tp in brain tissue” value is on record as “not detected; also recorded: not quantifiable”.

Consider `Cc1nnc(C(=O)NC(C)(C)c2nc(C(=O)NCc3ccc(F)cc3)c(O)c(=O)n2C)o1` [RAL, raltegravir], for which, in the series with RT-SHIV [2] (six of the remaining seven animals), the “IQ90 from total brain tissue concentrations” value was less than 1. Also, the “IQ90 from unbound brain tissue concentration” value in the series with RT-SHIV [2] (the one animal where unbound concentration could be measured) is listed as 0.07. For the same molecule, the “IQ90 in NHP brain tissue, one individual animal” value in the series on RT-SHIV [2] is 1.1. For the setting “both, hu-HSC-Rag and BLT (mice), mouse (humanized) and rhesus macaque, in vivo”, the Kp at 1 day after the last of ten days of dosing lay within 0.11 to 0.12.

On to `C[C@H](Cn1cnc2c(N)ncnc21)OCP(=O)(O)O` [TFV, tenofovir], for which the “median brain tissue concentration, human post-mortem” value in series [7] is recorded as 80 ng/g. Besides, in [8] (no reference given), the “protein binding in plasma” value is less than 10%. Also, the “fold higher brain tissue penetration in BLT mice compared to hu-HSC-RAG mice” value in series [10] came out at 3 fold.

In the case of maraviroc [MVC], in the series on RT-SHIV [4], the “fold higher IC90 against RT-SHIV than against clinical HIV-1 isolates” value is reported as 100 fold.
